From US9346762B2, “Pyrazole derivatives and their use as LPAR5 antagonists” (SANOFI, priority 2012, dated 2016)

Legend:
Type in all cases: cell-based
[1] = system: human mast cell line HMC-1 (LPA receptor LPAR5); experiment: FLIPR assay, intracellular Ca2+ release in human mast cell line HMC-1; settings: HMC1, LPA-stimulated Ca2+ release, HMC-1 cells, compound added 10 minutes prior to LPA
From the text: (§1) B) Use of the Fluorometric Imaging Plate Reader (FLIPR) Assay for the Determination of Intracellular Ca^2+ Release in Human Mast Cell Line HMC-1 and the Murine Microglia cell line BV-2
(§2) The ability of the compounds of the formula Ito inhibit or bind the LPA receptor LPAR5 can be assessed by determining the intracellular Ca^2+ release in human or animal cells. For the analysis of activating potential of LPA and the inhibitory effects of compounds of the formula I two cell lines were used with high LPAR5 expression, the human mast cell line HMC-1 and the murine microglia cell line BV-2 (FIGS. 1 and 2). For the FLIPR assay using human mast cells in a 96-well-format, HMC-1 suspension cells from flask culture were harvested, resuspended and counted. 14×10^6 HMC-1 cells were transferred into a new 50 ml tube, centrifuged for 3 minutes at 540×g. The resulting cell pellet at the bottom of the tube was resuspended with 15 ml loading buffer (loading buffer contained HBSS buffer (pH 7.4), 0.1% BSA (bovine serum albumin), 2 μM FLUO-4 dye; HBSS buffer (pH 7.4) contained 1×HBSS, 20 mM HEPES, 0.01% Pluronic F-127, 2.5 mM Probenicid).
Cells in loading buffer were incubated for 45-60 minutes at 37° C. After incubation cells were centrifuged for 3 minutes at 540×g and resuspended with 21 ml of HBSS buffer (pH 7.4). Each well of a poly-D-lysine coated 96-well-plate was filled with 150 μl cell solution, an equivalent of 100 000 cells/well. The 96-well-plate was centifuged for 2 minutes at 100×g (without brake) prior a recovery time of 30 minutes at 37° C. After this procedure cells were stimulated with LPA (in HBSS pH 7.4 and 0.1% BSA) to determine the EC50 of LPA in HMC-1 cells. For the determination of the inhibitory effect of compounds of the formula I, test compounds were added to the cells in the 96-well-plate 10 minutes prior the addition of LPA. Results of the assay are expressed as % activation, and are calculated using maximum peak of activation (Amax). The IC50 data of the above described FLIPR assay using human mast cell line HMC-1 for exemplary compounds of the present invention are shown in Table 2. Adherent BV-2 cells were seeded onto poly-D-lysine coated 96-well-plates (100000 cells/well) the day before performing the FLIPR assay. The density of the cells in the 96-well-plate at the day of the FLIPR assay should be 90%. After aspiration of the culture media, BV-2 cells were incubated for 30 minutes at 37° C. with loading buffer and recovered in 150 μl HBSS buffer for 30 minutes at 37° C. After this procedure cells were stimulated with LPA (in HBSS pH 7.4 and 0.1% BSA) to determine the EC50 of LPA in BV-2 cells. For the determination of the inhibitory effect of compounds of the formula I, test compounds were added to the cells in the 96-well-plate 10 minutes prior the addition of LPA. The IC50 data of the above described FLIPR assay using the murine microglia cell line BV-2 for exemplary compounds of the present invention are shown in Table 3.

[2] = system: washed human blood platelets (platelet LPA receptor LPAR5); experiment: Aggregation assay for washed human blood platelets (LPA-induced); settings: reduction of maximal LPA-induced aggregation, 5 min preincubation at 37° C.
Method: A) Aggregation Assay for Washed Human Blood Platelets (Thrombocytes)
Whole blood was collected from healthy volunteers using 3×20 ml syringes containing each 1/10 volume of buffered citrate. The anticoagulated whole blood was transferred into 50 ml polypropylene conical tubes (30 ml per tube). The tubes were centrifuged for 10 minutes at 150×g at room temperature without using the centrifuge brake. This procedure results in a lower phase of cellular components and a supernatant (upper phase) of platelet rich plasma (PRP). The PRP phase was collected from each tube and pooled for each donor. To avoid carry over of cellular components following first centrifugation, approximately 5 ml of PRP was left in the tube. The platelet concentration was determined using a ABX Micros 60 counter. The PRP phase was transferred to a new 50 ml tube. After 10 minutes standing at room temperature, 1 μl PGI2 (1 mM in Tris-HCl/pH 8.8) and 180 μl ACD/A were added per ml PRP. The PRP was then transferred to new 10 ml tube and centrifuged for 10 minutes at 500×g. After centrifugation a cellular pellet is visible at the bottom of the tube. The supernatant was carefully discarded and the cellular pellet, consisting of human blood platelets was then dissolved in 10 ml buffer T (buffer T composition: 145 mM NaCl, 5 mM KCl, 0.1 mM MgCl2×6 H2O, 15 mM HEPES, 5.5 mM glucose, pH 7.4). Platelet concentration in this solution was determined and buffer T was added to obtain a final concentration of 3.5×10^5 platelets per ml.
After 10 minutes at room temperature, 1 μl PGI2 per ml platelet solution was added and distributed into new 10 ml tubes. After a centrifugation step, 10 minutes at 500×g, supernatant was discarded and the platelets were resuspended in buffer T to a final concentration of 3.5×10^5 platelets per ml buffer T. Before use, platelet-containing buffer equilibrated for 30 minutes at room temperature. The human platelet aggregation assay was performed in single use cuvettes using the Platelet Aggregation Profiler® (PAP-4 or -8E, BIO/DATA Corporation). For a single experiment, 320 μl of platelet solution were transferred into an assay cuvette, 20 μl of calcium citrate solution (10 mM in H2O) and 20 μl of fibrinogen solution (20 mg/ml H2O) were added. The aggregation assay was performed in the assay cuvette at 37° C. and with 1.200 rpm stirring. To determine the EC50, eight assay cuvettes were loaded as described above with different concentrations of LPA. Aggregation was measured over 6 minutes at 37° C. with 1200 rpm (revolutions per minute) stirring. Results of the assay are expressed as % activation, and are calculated using maximum aggregation (Tmax) or area under curve (AUC) of the absorbance over 6 minutes. The inhibitory effect (IC50) of the test compounds was determined as the reduction of the maximal aggregation. Test compound was added prior starting the experiment with an incubation time of the test compound of 5 minutes at 37° C. with 1200 rpm stirring. The IC50 data of the above described platelet aggregation assay using human washed platelets for exemplary compounds of the present invention are shown in Table 1.

[3] = system: murine microglia cell line BV-2 (LPA receptor LPAR5); experiment: FLIPR assay, intracellular Ca2+ release in murine microglia cell line BV-2; settings: Mus musculus; LPA-stimulated Ca2+ release, BV-2 cells, compound added 10 minutes prior to LPA
From the text: as §1, §2
Cells in loading buffer were incubated for 45-60 minutes at 37° C. […] Results of the assay are expressed as % activation, and are calculated using maximum peak of activation (Amax). […]

Cc1c(COC(C)(C)C(=O)O)nn(-c2ccc(Cl)cc2Cl)c1-c1ccc(Cl)cc1 [Example 1, 2-[5-(4-Chloro-phenyl)-1-(2,4-dichloro-phenyl)-4-methyl-1H-pyrazol-3-ylmethoxy]-2-methyl-propionic acid]
IC50 [1]: 8.3 µM

Cc1c(COC2(C(=O)O)CCCC2)nn(-c2ccc(Cl)cc2Cl)c1-c1ccc(Cl)cc1 [Example 3, 1-[5-(4-Chloro-phenyl)-1-(2,4-dichloro-phenyl)-4-methyl-1H-pyrazol-3-ylmethoxy]-cyclopentanecarboxylic acid]
IC50 [1]: 8.8 µM

Cc1c(COC(C)(C)C(=O)O)nn(-c2ccc(Cl)cc2Cl)c1-c1ccc(C(F)(F)F)cc1 [Example 4, 2-[1-(2,4-Dichloro-phenyl)-4-methyl-5-(4-trifluoromethyl-phenyl)-1H-pyrazol-3-ylmethoxy]-2-methyl-propionic acid]
IC50 [1]: 6.6 µM

CCC(OCc1nn(-c2ccc(Cl)cc2Cl)c(-c2ccc(Cl)cc2)c1C)C(=O)O (stereo not shown) [Example 7, 2-[5-(4-Chloro-phenyl)-1-(2,4-dichloro-phenyl)-4-methyl-1H-pyrazol-3-ylmethoxy]-butyric acid]
IC50 [2]: 4.7 µM
IC50 [1]: 11.4 µM

Cc1c(COC(C)C(=O)O)nn(-c2ccc(Cl)cc2Cl)c1-c1ccc(Cl)cc1 (stereo not shown) [Example 8, 2-[5-(4-Chloro-phenyl)-1-(2,4-dichloro-phenyl)-4-methyl-1H-pyrazol-3-ylmethoxy]-propionic acid]
IC50 [2]: 4.1 µM
IC50 [1]: 6.3 µM

Cc1c(COC(C)(C)C(=O)NCc2ccc(C(=O)O)cc2)nn(-c2ccc(Cl)cc2Cl)c1-c1ccc(Cl)cc1 [Example 9, 4-({2-[5-(4-Chloro-phenyl)-1-(2,4-dichloro-phenyl)-4-methyl-1H-pyrazol-3-ylmethoxy]-2-methyl-propionylamino}-methyl)-benzoic acid]
IC50 [2]: 2.9 µM
IC50 [3]: 1.8 µM
IC50 [1]: 1.3 µM

Cc1c(COC(C)(C)C(=O)NCc2ccc(C(=O)O)cc2)nn(-c2ccc(Cl)cc2Cl)c1-c1ccc(C(F)(F)F)cc1 [Example 10, 4-({2-[1-(2,4-Dichloro-phenyl)-4-methyl-5-(4-trifluoromethyl-phenyl)-1H-pyrazol-3-ylmethoxy]-2-methyl-propionylamino}-methyl)-benzoic acid]
IC50 [3]: 0.2 µM
IC50 [1]: 0.03 µM

Cc1c(COCC(=O)NCc2ccc(C(=O)O)cc2)nn(-c2ccc(Cl)cc2Cl)c1-c1ccc(Cl)cc1 [Example 11, 4-({2-[5-(4-Chloro-phenyl)-1-(2,4-dichloro-phenyl)-4-methyl-1H-pyrazol-3-ylmethoxy]-acetylamino}-methyl)-benzoic acid]
IC50 [1]: 8.6 µM

CCC(OCc1nn(-c2ccc(Cl)cc2Cl)c(-c2ccc(Cl)cc2)c1C)C(=O)NCc1ccc(C(=O)O)cc1 (stereo not shown) [Example 12, 4-({2-[5-(4-Chloro-phenyl)-1-(2,4-dichloro-phenyl)-4-methyl-1H-pyrazol-3-ylmethoxy]-butyrylamino}-methyl)-benzoic acid]
IC50 [2]: 4.3 µM
IC50 [1]: 6.3 µM

Cc1c(COC(C)(C)C(=O)NCc2ccc(C(=O)O)cc2)nn(-c2ccccc2Cl)c1-c1ccc(C(F)(F)F)cc1 [Example 13, 4-({2-[1-(2-Chloro-phenyl)-4-methyl-5-(4-trifluoromethyl-phenyl)-1H-pyrazol-3-ylmethoxy]-2-methyl-propionylamino}-methyl)-benzoic acid]
IC50 [1]: 1.3 µM

Cc1c(COC(C)(C)C(=O)NCc2ccc(C(=O)O)cc2)nn(-c2ccc(Cl)cc2)c1-c1ccc(C(F)(F)F)cc1 [Example 14, 4-({2-[1-(4-Chloro-phenyl)-4-methyl-5-(4-trifluoromethyl-phenyl)-1H-pyrazol-3-ylmethoxy]-2-methyl-propionylamino}-methyl)-benzoic acid]
IC50 [1]: 3.4 µM

Cc1c(COC(C)C(=O)NCc2ccc(C(=O)O)cc2)nn(-c2ccc(Cl)cc2Cl)c1-c1ccc(Cl)cc1 (stereo not shown) [Example 15, 4-({2-[5-(4-Chloro-phenyl)-1-(2,4-dichloro-phenyl)-4-methyl-1H-pyrazol-3-ylmethoxy]-propionylamino}-methyl)-benzoic acid]
IC50 [2]: 6.5 µM
IC50 [1]: 8.8 µM

Cc1c(COC(C)C(=O)Nc2ccc(C(=O)O)cc2)nn(-c2ccc(Cl)cc2Cl)c1-c1ccc(C(F)(F)F)cc1 (stereo not shown) [Example 16, 4-{2-[1-(2,4-Dichloro-phenyl)-4-methyl-5-(4-trifluoromethyl-phenyl)-1H-pyrazol-3-ylmethoxy]-propionylamino}-benzoic acid]
IC50 [1]: 4.1 µM

Cc1c(COC(C(=O)Nc2ccc(C(=O)O)cc2)C(C)C)nn(-c2ccc(Cl)cc2Cl)c1-c1ccc(Cl)cc1 (stereo not shown) [Example 17, 4-{2-[5-(4-Chloro-phenyl)-1-(2,4-dichloro-phenyl)-4-methyl-1H-pyrazol-3-ylmethoxy]-3-methyl-butyrylamino}-benzoic acid]
IC50 [2]: 15.9 µM
IC50 [1]: 4.2 µM

Cc1c(COC(C)C(=O)Nc2ccc(C(=O)O)cc2)nn(-c2ccc(Cl)cc2)c1-c1ccc(C(F)(F)F)cc1 (stereo not shown) [Example 18, 4-{2-[1-(4-Chloro-phenyl)-4-methyl-5-(4-trifluoromethyl-phenyl)-1H-pyrazol-3-ylmethoxy]-propionylamino}-benzoic acid]
IC50 [1]: 3.8 µM

Cc1c(COC(C)C(=O)Nc2ccc(C(=O)O)cc2)nn(-c2ccccc2Cl)c1-c1ccc(C(F)(F)F)cc1 (stereo not shown) [Example 20, 4-{2-[1-(2-Chloro-phenyl)-4-methyl-5-(4-trifluoromethyl-phenyl)-1H-pyrazol-3-ylmethoxy]-propionylamino}-benzoic acid]
IC50 [1]: 5.2 µM

CC(OCc1cn(-c2ccccc2)nc1-c1ccccc1)C(=O)Nc1ccc(C(=O)O)cc1 (stereo not shown) [Example 22, 4-[2-(1,3-Diphenyl-1H-pyrazol-4-ylmethoxy)-propionylamino]-benzoic acid]
IC50 [1]: 16 µM
